In data set [1] the target is T1, human amylin receptor (amylin 3(a) receptor: human calcitonin receptor + RAMP-3) (Homo sapiens, UniProt O60896+P30988).
T1 construct: expressed in transfected cells; host or cells: BHK570
T1 sequence (P30988 25-474): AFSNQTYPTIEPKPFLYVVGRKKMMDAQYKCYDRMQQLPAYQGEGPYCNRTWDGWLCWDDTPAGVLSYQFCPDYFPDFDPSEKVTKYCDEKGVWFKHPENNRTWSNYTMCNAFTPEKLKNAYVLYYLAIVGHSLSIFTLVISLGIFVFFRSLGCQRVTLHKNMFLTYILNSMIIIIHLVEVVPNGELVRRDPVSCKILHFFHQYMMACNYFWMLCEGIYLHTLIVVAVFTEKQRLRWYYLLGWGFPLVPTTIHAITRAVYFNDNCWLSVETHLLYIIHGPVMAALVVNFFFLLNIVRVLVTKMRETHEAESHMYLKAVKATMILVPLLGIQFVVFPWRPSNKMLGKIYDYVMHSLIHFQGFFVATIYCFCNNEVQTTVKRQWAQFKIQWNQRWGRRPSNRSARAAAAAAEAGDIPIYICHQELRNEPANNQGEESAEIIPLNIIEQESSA
T1 sequence (O60896 24-148 partner): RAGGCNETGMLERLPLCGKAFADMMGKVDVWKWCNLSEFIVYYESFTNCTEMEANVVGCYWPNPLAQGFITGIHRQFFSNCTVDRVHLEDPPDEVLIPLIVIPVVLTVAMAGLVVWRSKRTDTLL
Kind of data set: Assay (II)a functional CRE-luciferase assay, human amylin receptor. In kind it is cell-based. The settings on record: Table 2; BHK amylin 3(a)-receptor/CRE-luc cells.

The nature of data set [2]: Assay (IV) determination of solubility. In kind it is physicochemical. The procedure, abridged:
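Polypeptide in water (~500 nmol/ml) mixed 1:1 with 100 mM glycylglycine (pH 3.0–5.0) or bistrispropane (pH 6.0–8.0) buffers. Held 18 hours at room temperature, then centrifuged. Polypeptide remaining in solution quantified by HPLC.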

For data set [3], the target named is T2, human calcitonin receptor (Homo sapiens, UniProt P30988).
T2 construct: expressed in transfected cells; host or cells: BHK570
T2 sequence (P30988 25-474): T1 sequence (P30988 25-474)
Kind of data set: Assay (II)a functional CRE-luciferase assay, human calcitonin receptor. In kind it is cell-based. The settings on record: Table 7; human calcitonin (CTa) receptor.

Data set [4] is described as follows: Assay (III) ThT fibrillation assay for physical stability. It is filed as physicochemical. Put shortly:
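Freshly prepared formulations, pH-adjusted, with 1 μM ThT; four or eight replicates incubated at 37 °C under 960 rpm orbital shaking. Fluorescence (ex 444/em 485 nm) read every 20 min; […]. Peptide concentration measured by RP-HPLC before and after the run.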

Setting [5] is: bistrispropane buffer, pH 6, pH 6.0, read-out: Solubility pH 6.0.
Setting [6] is: bistrispropane buffer, pH 6.5, pH 6.5, read-out: Solubility pH 6.5.
Where [7] appears, read: bistrispropane buffer, pH 7, pH 7.0, 18 hours at room temperature, Table 3, read-out: Solubility pH 7.0.
Setting [8] is: bistrispropane buffer, pH 7, pH 7.0, read-out: Solubility pH 7.0.
Setting [9] is: bistrispropane buffer, pH 7.5, pH 7.5, read-out: Solubility pH 7.5.
[10] abbreviates: bistrispropane buffer, pH 8, pH 8.0, read-out: Solubility pH 8.0.
Where [11] appears, read: glycylglycine buffer, pH 3, pH 3.0, read-out: Solubility pH 3.0.
Where [12] appears, read: glycylglycine buffer, pH 4, pH 4.0, 18 hours at room temperature, Table 2, read-out: Solubility pH 4.0.
The mark [13] stands for this setting: glycylglycine buffer, pH 4, pH 4.0, read-out: Solubility pH 4.0.
Setting [14] is: glycylglycine buffer, pH 5, pH 5.0, read-out: Solubility pH 5.0.

Converted amounts (≈) assume the structure as drawn. Read-outs that look alike come from different tables or passages of the source. Starred links: 1 amine or outer side, 2 acyl side, 3 side chain; linkers in the order of their positions; H or OH if unused. Positions of bridges follow the written chain, without caps; N, C: chain ends. Residues, ends and D or L forms follow the SMILES beside them. *: point of attachment. C20 diacid = O=C(O)CCCCCCCCCCCCCCCCCCC(=O)*; γGlu = O=C(O)[C@H](CCC(=O)[*:2])N[*:1]

As a reminder, the EC50 is the concentration needed to bring the measured effect to its halfway point. One may read the solubility as the concentration that dissolves in the medium under given conditions. `CC[C@H](C)[C@H](NC(=O)[C@@H]1CCCN1C(=O)CNC(=O)[C@H](Cc1ccccc1)NC(=O)[C@H](CC(N)=O)NC(=O)[C@H](CC(N)=O)NC(=O)[C@H](CO)NC(=O)[C@H](CO)NC(=O)[C@H](CCCNC(=N)N)NC(=O)[C@@H](NC(=O)[C@H](CC(C)C)NC(=O)[C@H](Cc1ccccc1)NC(=O)[C@H](CCC(=O)O)NC(=O)[C@H](C)NC(=O)[C@H](CC(C)C)NC(=O)[C@H](CCCNC(=N)N)NC(=O)[C@H](CCC(N)=O)NC(=O)[C@@H](NC(=O)[C@H](C)NC(=O)[C@@H]1CSSC[C@H](NC(=O)[C@H](Cc2c[nH]cn2)NC(=O)CC[C@H](NC(=O)CCCCCCCCCCCCCCCCCCC(=O)O)C(=O)O)C(=O)N[C@@H](CC(N)=O)C(=O)N[C@@H]([C@@H](C)O)C(=O)N[C@@H](C)C(=O)N[C@@H]([C@@H](C)O)C(=O)N1)[C@@H](C)O)C(C)C)C(=O)N[C@@H](CC(C)C)C(=O)N1CCC[C@H]1C(=O)N1CCC[C@H]1C(=O)N[C@H](C(=O)N[C@@H](CC(N)=O)C(=O)N[C@H](C(=O)NCC(=O)N[C@@H](CO)C(=O)N[C@@H](CC(N)=O)C(=O)N[C@H](C(=O)N1CCC[C@H]1C(N)=O)[C@@H](C)O)C(C)C)[C@@H](C)O` [Example 143, N-alpha-[(S)-4-Carboxy-4-(19-carboxynonadecanoylamino)butyryl]-[His1,Glu14,Arg18,Pro37]-pramlintide] ({C20 diacid-γGlu}-HCNTATCATQRLAEFLVRSSNNFGPILPPTNVGSNTP-NH2; disulfide 2-7 (inferred)): the values for the EC50 in data set [1] and in data set [3] were 41.5 pM and 22 pM, respectively. The solubility at 18 h in data set [2] (setting [5]) was 75 µM (≈ 329 µg/mL); in data set [2] (setting [6]), 122 µM (≈ 534 µg/mL); in data set [2] (setting [7]), 165 µM (≈ 723 µg/mL); in data set [2] (setting [8]), 165 µM (≈ 723 µg/mL); in data set [2] (setting [9]), above 200 µM; in data set [2] (setting [10]) it was above 200 µM. The solubility at 18 h in data set [2] (setting [11]), in data set [2] (setting [12]), in data set [2] (setting [13]) and in data set [2] (setting [14]) was above 200 µM in each case. In addition, the “ThT pH 4.0 lag time (h)” value in data set [4] (ThT fibrillation assay) is on record as 6 h.

As for `CC[C@H](C)[C@H](NC(=O)[C@@H]1CCCN1C(=O)CNC(=O)[C@H](Cc1ccccc1)NC(=O)[C@H](CC(N)=O)NC(=O)[C@H](CC(N)=O)NC(=O)[C@H](CO)NC(=O)[C@H](CO)NC(=O)[C@H](Cc1c[nH]cn1)NC(=O)[C@H](Cc1c[nH]cn1)NC(=O)[C@H](CC(C)C)NC(=O)[C@H](Cc1ccccc1)NC(=O)[C@H](CCC(=O)O)NC(=O)[C@H](C)NC(=O)[C@H](CC(C)C)NC(=O)[C@H](CCCNC(=N)N)NC(=O)[C@H](CCC(N)=O)NC(=O)[C@@H](NC(=O)[C@H](C)NC(=O)[C@@H]1CSSC[C@H](NC(=O)CNC(=O)CC[C@H](NC(=O)CCCCCCCCCCCCCCCCCCC(=O)O)C(=O)O)C(=O)N[C@@H](CC(N)=O)C(=O)N[C@@H]([C@@H](C)O)C(=O)N[C@@H](C)C(=O)N[C@@H]([C@@H](C)O)C(=O)N1)[C@@H](C)O)C(=O)N[C@@H](CC(C)C)C(=O)N1CCC[C@H]1C(=O)N1CCC[C@H]1C(=O)N[C@H](C(=O)N[C@@H](CC(N)=O)C(=O)N[C@H](C(=O)NCC(=O)N[C@@H](CO)C(=O)N[C@@H](Cc1c[nH]cn1)C(=O)N[C@H](C(=O)N[C@@H](Cc1ccc(O)cc1)C(N)=O)[C@@H](C)O)C(C)C)[C@@H](C)O` [Example 105, N-alpha-[(S)-4-Carboxy-4-(19-carboxynonadecanoylamino)butyryl]-[Gly1,Glu14,His17,His35]-pramlintide] ({C20 diacid-γGlu}-GCNTATCATQRLAEFLHHSSNNFGPILPPTNVGSHTY-NH2; disulfide 2-7 (inferred); C-terminus assumed), the EC50 in data set [1] turned out to be 208 pM; in data set [3], 160 pM. Moreover, the solubility at 18 h was above 200 µM in data set [2] (setting [5]); 152 µM (≈ 670 µg/mL) in data set [2] (setting [6]); above 200 µM in data set [2] (setting [7]); above 200 µM in data set [2] (bistrispropane buffer, pH 7, pH 7.0, Table 8, read-out: Solubility pH 7.0); above 200 µM in data set [2] (setting [8]); above 200 µM in data set [2] (setting [9]). For the same molecule, the solubility at 18 h in data set [2] (setting [10]), in data set [2] (setting [11]), in data set [2] (setting [12]), in data set [2] (setting [13]) and in data set [2] (setting [14]) was above 200 µM throughout. For the same molecule, the “ThT pH 4.0 lag time” value in data set [4] (Table 8) and in data set [4] (ThT fibrillation assay) was 26 h each time. In addition, the “ThT pH 4.0 lag time (h)” value in data set [4] (ThT fibrillation assay) was 26 h.

Take `CC[C@H](C)[C@H](NC(=O)[C@@H]1CCCN1C(=O)CNC(=O)[C@H](Cc1ccccc1)NC(=O)[C@H](CC(N)=O)NC(=O)[C@H](CC(N)=O)NC(=O)[C@H](CO)NC(=O)[C@H](CO)NC(=O)[C@H](Cc1c[nH]cn1)NC(=O)[C@H](Cc1c[nH]cn1)NC(=O)[C@H](CC(C)C)NC(=O)[C@H](Cc1ccccc1)NC(=O)[C@H](CCC(=O)O)NC(=O)[C@H](C)NC(=O)[C@H](CC(C)C)NC(=O)[C@H](CCCNC(=N)N)NC(=O)[C@H](CCC(N)=O)NC(=O)[C@@H](NC(=O)[C@H](C)NC(=O)[C@@H]1CSSC[C@H](NC(=O)[C@H](CCCCN)NC(=O)[C@H](CCC(=O)O)NC(=O)[C@H](CCC(=O)O)NC(=O)CC[C@H](NC(=O)CCCCCCCCCCCCCCCCCCC(=O)O)C(=O)O)C(=O)N[C@@H](CC(N)=O)C(=O)N[C@@H]([C@@H](C)O)C(=O)N[C@@H](C)C(=O)N[C@@H]([C@@H](C)O)C(=O)N1)[C@@H](C)O)C(=O)N[C@@H](CC(C)C)C(=O)N1CCC[C@H]1C(=O)N1CCC[C@H]1C(=O)N[C@H](C(=O)N[C@@H](CC(N)=O)C(=O)N[C@H](C(=O)NCC(=O)N[C@@H](CO)C(=O)N[C@@H](CC(N)=O)C(=O)N[C@H](C(=O)N[C@@H](Cc1ccc(O)cc1)C(N)=O)[C@@H](C)O)C(C)C)[C@@H](C)O` [Example 41, N-alpha-[(S)-4-Carboxy-4-(19-carboxynonadecanoylamino)butyryl]-Glu-Glu-[Glu14,His17]-pramlintide] ({C20 diacid-γGlu}-EEKCNTATCATQRLAEFLHHSSNNFGPILPPTNVGSNTY-NH2; disulfide 4-9 (inferred)): the concentration giving a half-maximal response (EC50) in data set [1] is 402 pM; in data set [3], 798 pM. Besides, the solubility at 18 h in data set [2] (setting [5]) was 1 µM (≈ 4.71 µg/mL); in data set [2] (setting [6]), 1 µM (≈ 4.71 µg/mL); in data set [2] (setting [8]), 1 µM (≈ 4.71 µg/mL); in data set [2] (setting [9]) it was 1 µM (≈ 4.71 µg/mL); in data set [2] (setting [10]), 4 µM (≈ 18.9 µg/mL); in data set [2] (setting [11]), above 200 µM. The results for the solubility at 18 h in data set [2] (setting [12]), in data set [2] (setting [13]) and in data set [2] (setting [14]) were 118 µM (≈ 556 µg/mL), 118 µM (≈ 556 µg/mL) and 1 µM (≈ 4.71 µg/mL), respectively. Also, in data set [4] (ThT fibrillation assay), the “ThT pH 4.0 lag time (h)” value came to 0 h.

For the origin of these results see patent US8722849B2, “Polypeptides” (Novo Nordisk A/S, priority 2011, dated 2014).
